Data set [1] is described as follows: Partition coefficient, log P of compound. In kind it is physicochemical. Conditions: octanol/water.
Data set [2] deals with Staphylococcus aureus. Put plainly: Induction of membrane permeabilization in Staphylococcus aureus FDA 209P assessed as decrease in cell viability. In kind it is functional, organism-based.
Data set [3] relates to Staphylococcus aureus. The data set can be described thus: Induction of membrane permeabilization in Staphylococcus aureus FDA 209P assessed as increase in potassium efflux. The format is functional, organism-based.
Data set [4] concerns Bacillus subtilis. The data set can be described thus: Antibacterial activity against Bacillus subtilis 168 assessed as bacterial growth inhibition after 20 hrs by liquid microdilution method. Conditions: Bacillus subtilis, 168, 20 h. In kind it is functional.
Data set [5] concerns Escherichia coli. The data set can be described thus: Antibacterial activity against Escherichia coli K12 W3110 assessed as bacterial growth inhibition after 20 hrs by liquid microdilution method. The format is functional. Conditions: K-12 substr. W3110, 20 h.
Data set [6] can be described thus: Haemolytic activity in rabbit RBCs at 50 uM relative to control. In kind it is ADME, cell-based, Oryctolagus cuniculus, Erythrocyte. Conditions: rabbit red blood cells (erythrocytes), read-out: Activity.
The test system of data set [7] is Staphylococcus aureus. Put plainly: Antibacterial activity against Staphylococcus aureus FDA 209P assessed as bacterial growth inhibition after 20 hrs by liquid microdilution method. In kind it is functional.
Data set [8] relates to Escherichia coli. Put plainly: Induction of membrane permeabilization in Escherichia coli K12 W3110 assessed as increase in potassium efflux. The format is functional, organism-based.
For data set [9], the system named is Pseudomonas aeruginosa. The data set can be described thus: Antibacterial activity against Pseudomonas aeruginosa PAO1 assessed as bacterial growth inhibition after 20 hrs by liquid microdilution method. In kind it is functional. Conditions: PAO1, 20 h.
Data set [10] concerns Salmonella typhimurium. Put plainly: Antibacterial activity against Salmonella typhimurium LT2 assessed as bacterial growth inhibition after 20 hrs by liquid microdilution method. Conditions: Salmonella enterica, LT2, 20 h. The format is functional, Salmonella enterica subsp. enterica serovar Typhimurium.
The subject of data set [11] is Escherichia coli. The data set can be described thus: Induction of membrane permeabilization in Escherichia coli K12 W3110 assessed as decrease in cell viability. In kind it is functional, organism-based.

Active and inactive are the calls of the source. No cut-off for these calls is given here.

As for `CC(=O)O[C@@H]1[C@@H](OC(C)=O)[C@H]2O[C@H]3[C@H](OC(C)=O)[C@@H](OC(C)=O)[C@@H](O[C@H]4[C@H](OC(C)=O)[C@@H](OC(C)=O)[C@@H](O[C@H]5[C@H](OC(C)=O)[C@@H](OC(C)=O)[C@@H](O[C@H]6[C@H](OC(C)=O)[C@@H](OC(C)=O)[C@@H](O[C@H]7[C@H](OC(C)=O)[C@@H](OC(C)=O)[C@@H](O[C@H]8[C@H](OC(C)=O)[C@@H](OC(C)=O)[C@@H](O[C@H]9[C@H](OC(C)=O)[C@@H](OC(C)=O)[C@@H](O[C@@H]1[C@@H](Cn1cc(CN)nn1)O2)O[C@@H]9Cn1cc(CN)nn1)O[C@@H]8Cn1cc(CN)nn1)O[C@@H]7Cn1cc(CN)nn1)O[C@@H]6Cn1cc(CN)nn1)O[C@@H]5Cn1cc(CN)nn1)O[C@@H]4Cn1cc(CN)nn1)O[C@@H]3Cn1cc(CN)nn1`, the logP in data set [1] was -2.2. The outcome in data set [2], in data set [3], in data set [8] and in data set [11] was Active. Besides, the MIC in [4], in data set [5], in [7], in data set [9] and in [10] was above 36 µM each time. For the same compound, the hemolysis at 50 µM in data set [6] was found to be 1%.
With `CCCC(=O)O[C@@H]1[C@@H](OC(=O)CCC)[C@H]2O[C@H]3[C@H](OC(=O)CCC)[C@@H](OC(=O)CCC)[C@@H](O[C@H]4[C@H](OC(=O)CCC)[C@@H](OC(=O)CCC)[C@@H](O[C@H]5[C@H](OC(=O)CCC)[C@@H](OC(=O)CCC)[C@@H](O[C@H]6[C@H](OC(=O)CCC)[C@@H](OC(=O)CCC)[C@@H](O[C@H]7[C@H](OC(=O)CCC)[C@@H](OC(=O)CCC)[C@@H](O[C@H]8[C@H](OC(=O)CCC)[C@@H](OC(=O)CCC)[C@@H](O[C@H]9[C@H](OC(=O)CCC)[C@@H](OC(=O)CCC)[C@@H](O[C@@H]1[C@@H](Cn1cc(CN)nn1)O2)O[C@@H]9Cn1cc(CN)nn1)O[C@@H]8Cn1cc(CN)nn1)O[C@@H]7Cn1cc(CN)nn1)O[C@@H]6Cn1cc(CN)nn1)O[C@@H]5Cn1cc(CN)nn1)O[C@@H]4Cn1cc(CN)nn1)O[C@@H]3Cn1cc(CN)nn1`, the logP in data set [1] is -0.06. In addition, the outcome in [2], in data set [3], in data set [8] and in data set [11] was Active. In addition, the MIC in [4], in [5], in [7], in [9] and in data set [10] was above 32 µM each time. The hemolysis at 50 µM in data set [6] came to 102%.
Turning to `CC(C)CC(=O)O[C@@H]1[C@@H](OC(=O)CC(C)C)[C@H]2O[C@H]3[C@H](OC(=O)CC(C)C)[C@@H](OC(=O)CC(C)C)[C@@H](O[C@H]4[C@H](OC(=O)CC(C)C)[C@@H](OC(=O)CC(C)C)[C@@H](O[C@H]5[C@H](OC(=O)CC(C)C)[C@@H](OC(=O)CC(C)C)[C@@H](O[C@H]6[C@H](OC(=O)CC(C)C)[C@@H](OC(=O)CC(C)C)[C@@H](O[C@H]7[C@H](OC(=O)CC(C)C)[C@@H](OC(=O)CC(C)C)[C@@H](O[C@H]8[C@H](OC(=O)CC(C)C)[C@@H](OC(=O)CC(C)C)[C@@H](O[C@H]9[C@H](OC(=O)CC(C)C)[C@@H](OC(=O)CC(C)C)[C@@H](O[C@@H]1[C@@H](Cn1cc(CN)nn1)O2)O[C@@H]9Cn1cc(CN)nn1)O[C@@H]8Cn1cc(CN)nn1)O[C@@H]7Cn1cc(CN)nn1)O[C@@H]6Cn1cc(CN)nn1)O[C@@H]5Cn1cc(CN)nn1)O[C@@H]4Cn1cc(CN)nn1)O[C@@H]3Cn1cc(CN)nn1`, in data set [1], the logP stood at 0.6. Also, the MIC was above 31 µM in data set [4]; above 31 µM in [5]; above 31 µM in data set [7]; above 43 µM in [9]; above 43 µM in data set [10]. Also, in data set [6], the hemolysis at 50 µM came out at 87%.

The values above are taken from ChEMBL document CHEMBL4334431, “Gramicidin S-inspired antimicrobial cyclodextrin to disrupt gram-negative and gram-positive bacterial membranes” (Medchemcomm, 2019).
